From article PMC5390903, “Influence of drug transporters and stereoselectivity on the brain penetration of pioglitazone as a potential medicine against Alzheimer's disease” (Scientific Reports, 2015)

What was measured:
CHO-APP695 cells = experiment: Extracellular amyloid-β42 lowering in CHO-APP695 (sandwich ELISA); assay type: cell-based, Chinese hamster; conditions: 48 hours; for effect on increase in extracellular amyloid-β42: 10 μM, versus non-treated CHO-APP695
Procedure: Figure 4 Extracellular amyloid-β42 levels in culture media samples harvested from both CHO-WT and treated or non-treated CHO-APP695 following 48 hours of post-seeding incubation.
CHO (Chinese hamster ovary) cells stably transfected with mouse APP 695 (CHO-APP695) were used as the AD in vitro model in this experiment. CHO-APP695 and the wild type (CHO-WT) were kindly provided by G. S. Dawe (National University of Singapore, Singapore). Both cell lines were incubated at 37°C in the presence of 5% CO2 for all cell culture work. Cell lines were maintained in DMEM culture medium (Sigma D1152) containing 10% FBS and supplemented with 100 units/mL of penicillin and 100 μg/mL of streptomycin.
When cells were used for experiments, both CHO-APP695 and CHO-WT were standardised at third passage and harvested for seeding when the cells were at log-phase growth. Cells were seeded (n = 7) on 24-well cell culture plates at 1 × 10^5 cells/well in 0.5 mL of culture medium. To evaluate amyloid-lowering effects of (+)-pioglitazone and racemic pioglitazone on extracellular amyloid-β42 levels, additional groups (n = 7) of CHO-APP695 treated with (+)-pioglitazone, (+)-pioglitazone + T007, racemic pioglitazone, and racemic pioglitazone + T007 were also seeded. […] Upon completion of seeding after 24 hours, the culture medium in each well was replaced with 0.5 mL of fresh medium. Seeded cells were incubated further for 48 hours before the culture medium was individually harvested. Harvested samples were briefly centrifuged (800 g) for 5 minutes at 4°C before supernatants were transferred into clean 1.8-mL cryogenic vials and snap frozen in liquid nitrogen. All harvested samples were stored at −80°C until analysis.
Amyloid-β42 levels in culture media were harvested 48 hours after seeding incubation and were quantitatively measured using colorimetric sandwich ELISA kits according to the protocols provided by the manufacturer (#SIG-38954 and #SIG-38956 from Covance, Princeton, NJ). […] All absorbance readings were measured using a Tecan Infinite M200 microplate reader (Tecan, Switzerland).

in vivo = conditions: 30 mg/kg
Procedure: Our established UPLC-MS/MS method was used to quantify pioglitazone concentrations in plasma and brain samples harvested at different time points (1, 2, 4, 6, and 8 hours) after mice were given either racemic pioglitazone or (+)-pioglitazone.
Error bar represents one SD.
A total of forty mice were split into two treatment groups (n = 20), with one group receiving a single dose of the racemic pioglitazone (30 mg/kg, p.o.) and another group receiving the purified (+)-pioglitazone (30 mg/kg, p.o.). Both compounds were dissolved in Milli-Q water using 1% DMSO as co-solvent. Following oral administration of the test compounds, mice from both treatment groups were split again into five subgroups (n = 4), and mice belonging to different subgroups were sacrificed at different time points (1 hour, 2 hours, 4 hours, 6 hours, and 8 hours after oral dosing). All mice were sacrificed by CO2 euthanasia and blood samples were taken via cardiac puncture. Blood samples were then centrifuged at 4000 g (10 minutes) to collect the plasma. Whole brains were collected following transcardial perfusion with saline to remove blood from organs. […] Pioglitazone concentrations versus time graphs were constructed for both brain and plasma samples, and area under curve (AUC) for both (+)-pioglitazone and racemic pioglitazone were then used to assess each tissue's exposure to pioglitazone. AUC was calculated from time 0 hour to infinity (AUC0–∞) for both types of samples using the trapezoidal rule. Comparisons of pioglitazone concentrations in different sample matrices between the two treatment groups were performed using two-tailed independent t-test with Welch's correction, and statistical significance was defined as P < 0.05.

BCRP = test system: BCRP; set-up: method as in PMID 22828996; conditions: 5 mg/kg; mice; cited from earlier work
[1] = set-up: method as in PMID 21819568; conditions: monkeys; cited from earlier work
[2] = In vivo investigation of P-gp and BCRP contributions to limited brain penetration of pioglitazone (brain-to-plasma ratio after transporter inhibitor pre-treatment); conditions: C57BL/6, mouse, in vivo, 30 mg/kg
Procedure: (§1) All animals were pre-treated with the respective drug transporter inhibitor(s) 30 minutes before administration of pioglitazone. Thirty minutes after treatment with pioglitazone, all animals were sacrificed and plasma and brain samples were collected. […] The brain-to-plasma ratios of pioglitazone concentrations were used to assess penetration of brain tissue.
(§2) Figure 1 All animals were pre-treated with either the vehicle or the respective drug-transporter inhibitor (n = 6 for each treatment group) 30 minutes prior to drug treatment. Plasma and brain samples were then collected from the animals 30 minutes after pioglitazone treatment. (A) Pioglitazone levels in plasma samples harvested from mice given i.p. pioglitazone with or without pre-treatment of LY335979 (P-gp blocker) and/or Ko143 (BCRP blocker). (B) Brain-to-plasma ratios of pioglitazone concentrations calculated for each mouse given i.p. pioglitazone with or without pre-treatment of LY335979 and/or Ko143.
(§3) A total of 24 mice were divided into four treatment groups (n = 6), where three groups received pre-treatment of efflux pump inhibitors (P-gp inhibitor LY335979, BCRP inhibitor Ko143, and a combination of LY335979 + Ko143) and one group received vehicle pre-treatment as a control. All test compounds (pioglitazone, LY335979, and Ko143) were dissolved in Milli-Q water using 1% DMSO as co-solvent. Pre-treatments of LY335979 (25 mg/kg), Ko143 (5 mg/kg) or a combination of both were given in a single intra-peritoneal (i.p.) injection 30 minutes before pioglitazone administration (i.p. injection, 30 mg/kg). […] Following another 30 minutes after pioglitazone administration, all mice were sacrificed by CO2 euthanasia and their blood samples were collected via cardiac puncture into Eppendorf tubes supplemented with heparin. Transcardial perfusion with saline was then performed on the sacrificed mice to remove traces of blood from organs before the whole brain tissues were harvested. All biological samples were kept on ice immediately after collection. […]

[3] = test system: P-gp and BCRP drug efflux transporters at the blood-brain-barrier; experiment: as above
Procedure: as §1, §2, §3

[4] = rats, dogs, and monkeys; cited from earlier work
P-gp = test system: P-gp; set-up: method as in PMID 10820137; conditions: 25 mg/kg; mice; cited from earlier work

Which results are given for `CCc1ccc(CCOc2ccc(C[C@H]3SC(=O)NC3=O)cc2)nc1` (single isomer, unassigned) [(+)-pioglitazone]?
treatment effect on extracellular amyloid-β42 on co-administration of PPARγ selective blocker (T007) (CHO-APP695 cells; 10 μM each): nullified; effect on increase in extracellular amyloid-β42 (CHO-APP695 cells): reduced significantly; brain AUC0–∞ / brain exposure higher than after racemic pioglitazone (in vivo; mouse): 76%; brain AUC0–∞ of pioglitazone (in vivo; mouse, po): 40 µg·h/mL; brain Cmax of pioglitazone (in vivo; mouse, po): 5070 ± 380 ng/mL; peak time (Tmax) of plasma pioglitazone (in vivo; mouse, po): 1 h; plasma AUC0–∞ of pioglitazone (in vivo; mouse, po): 274 µg·h/mL; plasma concentration maximum (Cmax) of pioglitazone (in vivo; mouse, po): 39920 ± 6200 ng/mL

With `COc1ccc2c3c([nH]c2c1)[C@H](CC(C)C)N1C(=O)[C@H](CCC(=O)OC(C)(C)C)NC(=O)[C@@H]1C3` [Ko143] as the compound, how does the “inhibition of BCRP” value (BCRP) read?
The value was 50%.

For `CCc1ccc(CCOc2ccc(CC3SC(=O)NC3=O)cc2)nc1` (stereo not drawn) [pioglitazone, Pioglitazone], which “cerebral spinal fluid (CSF) concentration as % of plasma concentrations” value [1] is on record?
Its value is “less than 3%”.

And the “effect on increase in extracellular amyloid-β42” value (CHO-APP695 cells)?
The value was “reduced significantly”.

And the Kp at 30 min [2]?
The Kp at 30 min was 0.107 ± 0.0125.

What about the transporter substrate status ([3]; mouse, in vivo) of the same compound?
The transporter substrate status was “substrate of P-gp”.

What about the “pioglitazone brain-to-plasma concentration ratio” value ([3]; vehicle pre-treatment (control), pioglitazone 30 mg/kg i.p., 30 minutes after pioglitazone, n = 6) of the same compound?
The value was 10.65%.

And the “share of serum pioglitazone found in the CSF” value [4]?
The value was “approximately 18%”.

And the AUC(0-inf) (in vivo; C57BL/6, mouse, po)?
Its AUC(0-inf) is 262 µg·h/mL.

And the Cmax (in vivo; C57BL/6, mouse, po)?
Its Cmax is 53500 ± 8070 ng/mL.

What about the Tmax (in vivo; C57BL/6, mouse, po) of the same compound?
Its Tmax is 1 h.

What about the “brain AUC0–∞ of pioglitazone” value (in vivo; C57BL/6, mouse, po) of the same compound?
The value was 22.7 µg·h/mL.

What about the “brain Cmax of pioglitazone” value (in vivo; C57BL/6, mouse, po) of the same compound?
Its value is 4880 ± 340 ng/mL.

With LY335979 as the compound, how does the “inhibition of P-gp” value (P-gp) read?
Its value is 50%.
